Experimental data from US7301024B2, “Crystalline forms of gatifloxacin and processes for preparation” (Teva Pharmaceutical Industries Ltd., priority 2002, dated 2007).

Columns and labels:
[1] = sesquihydrate compared with hemihydrate; cited from earlier work
[2] = compared with the other crystalline forms of U.S. Pat. No. 6,413,969; cited from earlier work
[3] = room temperature; compared with the other crystalline forms of U.S. Pat. No. 6,413,969; cited from earlier work
[4] = solid-state form after storage at 40° C. and 75% relative humidity, analyzed by XRD; type: physicochemical; settings: 3 months
Method: As used in connection with the present invention, x-ray diffraction refers to x-ray diffraction by the powder diffraction technique (PXRD). X-ray powder diffraction analysis was performed using a Scintag powder diffractometer with variable goniometer, a Cu source, and a solid state detector. A standard round aluminum sample holder with zero background quartz plate was used. Samples were scanned from 2° to 40° 2θ at 3° per minute. Reflections are reported as peak maxima in the Intensity vs. 2θ plots, and are subject to the normal experimental error (uncertainty). Wet samples were promptly analyzed “as is,” i.e., without drying or grinding prior to the analysis.
Gatifloxacin form CH2 can also be made by heating form Ω to between about 25° C. and about 50° C. at a relative humidity of about 60% to about 80%, preferably for at least about one month. Gatifloxacin so formed is a mixture of form Ω and form CH2.
4. Gatifloxacin form Ω (3 g) was heated to 40° C. at 75% of relative humidity for 3 months.

[5] = compared with hemihydrate; cited from earlier work

COc1c(N2CCNC(C)C2)c(F)cc2c(=O)c(C(=O)O)cn(C3CC3)c12 (racemic) [hemihydrate, (±)-1-cyclopropyl-6-fluoro-1,4-dihydro-8-methoxy-7-(3-methyl-1-piperazinyl)-4-oxo-3-quinolinecarboxylic acid]
hygroscopicity [1]: hygroscopic

COc1c(N2CCNC(C)C2)c(F)cc2c(=O)c(C(=O)O)cn(C3CC3)c12 (racemic) [pentahydrate, (±)-1-cyclopropyl-6-fluoro-1,4-dihydro-8-methoxy-7-(3-methyl-1-piperazinyl)-4-oxo-3-quinolinecarboxylic acid]
thermodynamic stability [2]: most thermodynamically stable form
aqueous solubility [3]: lowest

COc1c(N2CCNC(C)C2)c(F)cc2c(=O)c(C(=O)O)cn(C3CC3)c12 (racemic) [form Ω, (±)-1-cyclopropyl-6-fluoro-1,4-dihydro-8-methoxy-7-(3-methyl-1-piperazinyl)-4-oxo-3-quinolinecarboxylic acid]
crystalline form found by XRD after storage [4]: mixture of gatifloxacin form Ω and form CH2

COc1c(N2CCNC(C)C2)c(F)cc2c(=O)c(C(=O)O)cn(C3CC3)c12 (racemic) [sesquihydrate, (±)-1-cyclopropyl-6-fluoro-1,4-dihydro-8-methoxy-7-(3-methyl-1-piperazinyl)-4-oxo-3-quinolinecarboxylic acid]
stability in manufacturing [5]: more stable in manufacturing
hygroscopicity [1]: less hygroscopic
